# Reference: patent US12508266B2 (priority 2010, dated 2025)
# Test system: A/NJ/15/2007 (H1N1-H274Y)
# Assay type: cell-based, influenza
compound,measurement,value
"Nc1ncnc2c([C@@H]3N[C@H](CO)[C@@H](O)[C@H]3O)c[nH]c12 [Compound 1, (2S,3S,4R,5R)-2-(4-Amino-5H-pyrrolo[3,2-d]pyrimidin-7-yl)-5-(hydroxymethyl) pyrrolidine-3,4-diol]",EC50,1.39 µg/mL
